Test results as given in BindingDB's records for doi:10.1016/j.bmcl.2014.07.010 (Freie Universitaet Berlin, 2014).

Assay: Inhibition of influenza A virus (A/Perth/16/2009(H3N2)) neuraminidase using MUNANA substrate pre-incubated for 30 mins before substrate addition by fluorometric assay

Row | Compound | IC50 [µM]
1 | O=c1cc(-c2ccc(O)c(O)c2)oc2cc(O[C@@H]3O[C@H](CO)[C@@H](O)[C@H](O)[C@H]3O)cc(O)c12 | 51.2
2 | O=c1cc(O)cc2oc(-c3ccc(O)c(O)c3)c(O[C@@H]3O[C@H](CO)[C@@H](O)[C@H](O)[C@H]3O)c(O)c1-2 [Quercetin 3-O-beta-D-glucoside] | 477
3 | O=c1cc(O)cc2oc(-c3ccc(O)c(O)c3)c(O[C@@H]3O[C@H](CO)[C@H](O)[C@H](O)[C@H]3O)c(O)c1-2 [2-(3,4-Dihydroxy-phenyl)-5,7-dihydroxy-3-((2S,4R,5R)-3,4,5-trihydroxy-6-hydroxymethyl-tetrahydro-pyran-2-yloxy)-chromen-4-one] | 85.5
4 | C[C@@H]1O[C@@H](Oc2c(-c3ccc(O)c(O)c3)oc3cc(O)cc(O)c3c2=O)[C@H](O)[C@H](O)[C@H]1O [CHEBI:17558] | 121
5 | O=c1c(O)c(-c2ccc(O)cc2)oc2cc(O)cc(O)c12 | 42.2
